Molecules are shown by their SMILES.

In assay [1] the test system is subcutaneous CT26.WT carcinoma xenografts. Nature of the assay: Anti-cancer activity against subcutaneous CT26.WT carcinoma in Balb/c mice (tumor growth delay, response status). It counts as in vivo. On the set-up: key to Tumor Growth Delay, statistical comparison vs G1 (Vehicle (Saline)) / Tumor Growth Delay, statistical comparison vs G2 (GMI-1359) / Tumor Growth Delay, statistical comparison vs G3 (anti KLH; Rat IgG2b, LTF-2) / Tumor Growth Delay, statistical comparison vs G4 (anti-mPD-L1) / Tumor Growth Delay, statistical comparison vs G5 (GMI-1359 + anti KLH; Rat IgG2b, LTF-2) / Tumor Growth Delay, statistical comparison vs G6 (GMI-1359 + anti-mPD-L1) / Tumor Growth Delay, statistical comparison vs G7 (Vehicle (Saline)): + = P < 0.05; NS = Nonsignificant. As to the method:
The anti-cancer activity of an anti-mPD-L1 antibody (10F.9G2) and GMI-1359 was compared to a rat isotype control antibody against indeterminate subcutaneous CT26.WT carcinoma xenografts in female Balb/c mice. An immune profile of each mouse was determined by sampling tumors and spleens, staining for several markers of an active immune response, and detecting the levels of these markers via flow cytometry. Flow cytometry markers included: T-Cells (CD4^+ and CD8^+), Regulatory T-Cells (Tregs). (CD4^+/CD25^+/FoxP3^+), MDSCs (CD11b^+/Gr1^+) and co-expression of CCR7^+ and CD62^+ added to the existing CD4/CD8 panel.
CT26.WT cells were grown in RPMI 1640 medium which was modified with 1 mM Na pyruvate, 10 mM HEPES, 2.5 g/L glucose and supplemented with 10% nonheat-inactivated Fetal Bovine Serum (FBS) and 1% 100X Penicillin/Streptomycin/L-Glutamine (PSG). The growth environment was maintained in an incubator with a 5% CO2 atmosphere at 37° C.
When expansion was complete, the cells were trypsinized using 0.25% trypsin-EDTA solution. Following cell detachment, the trypsin was inactivated by dilution with complete growth medium and any clumps of cells were separated by pipetting. The cells were centrifuged at 200 rcf for 8 minutes at 4° C., the supernatant was aspirated, and the pellet was re-suspended in cold Dulbecco's Phosphate Buffered Saline (DPBS) by pipetting. An aliquot of the homogeneous cell suspension was diluted in a trypan blue solution and counted using a Luna automated cell counter. The preimplantation cell viability was 92%. The cell suspension was centrifuged at 200 rcf for 8 minutes at 4° C. The supernatant was aspirated and the cell pellet was re-suspended in cold serum-free medium to generate a final concentration of 2.50E+06 trypan-excluding cells/mi. The cell suspension was maintained on wet ice during implantation. Following implantation, an aliquot of the remaining cells was diluted with a trypan blue solution and counted to determine the post-implantation cell viability (91%).
Test animals were implanted subcutaneously, high in the axilla (just under the fore limb) on Day 0 with 5.00E+05 cells in 0.2 ml of serum-free medium using a 27-gauge needle and syringe.
All mice were sorted into study groups based on body weights such that the mean body weights in each group was within 10% of the overall mean. Treatment began on Day 3.
GMI-1359 was dosed intraperitoneally at 40 mg/kg, every day for 20 days (Days 3-22) and every day for 12 days (Days 3-14) for Groups 2 and 8, respectively.
Anti-KLH; Rat IgG2b, LTF-2 was dosed intraperitoneally at 10 mg/kg, every 3 days for 2 treatments, with 3 days off for 2.5 weeks (Days 3, 6, 10, 13 and 17) for Group 3. Group 9 was dosed intraperitoneally at 10 mg/kg, every 3 days for 2 treatments, with 3 days off for 2 weeks (Days 3, 6, 10 and 13).
Groups 4 and 10: Anti-mPD-L1, 10F.9G2 was dosed intraperitoneally at 10 mg/kg, every 3 days for 2 treatments, with 3 days off for 2.5 weeks (Days 3, 6, 10, 13 and 17) for Group 4.
Group 10 was dosed intraperitoneally at 10 mg/kg, every 3 days for 2 treatments, with 3 days off for 2 weeks (Days 3, 6, 10 and 13).
GMI-1359 was dosed in combination with anti-KLH; Rat IgG2b, LTF intraperitoneally at 40 mg/kg and 10 mg/kg, respectively. In Group 5, GMI-1359 was dosed once a day for 20 days (Days 3-22) and anti-KLH; Rat IgG2b was given every 3 days for 2 treatments, with 3 days off for 2.5 weeks (Days 3, 6, 10, 13 and 17). In Group 11, GMI-1359 was dosed once a day for 12 days (Days 3-14) and anti-KLH; Rat IgG2b was dosed every 3 days for 2 treatments, with 3 days off for 2 weeks and (Days 3, 6, 10 and 13). On days when both compounds were dosed, GMI-1359 was given first and then anti-KLH; Rat IgG2b, LTF was given within minutes thereafter.
Groups 6 and 12: GMI-1359 and anti-mPD-L1, 10F.9G2 were dosed in a combination regimen intraperitoneally at 40 mg/kg and 10 mg/kg, respectively. […]

The test system of assay [2] is Human E-selectin/Ig chimera. Nature of the assay: Competitive binding assay, sLe^a-polyacrylamide conjugate to immobilized E-selectin. As to conditions: sLe^a-polyacrylamide/streptavidin-HRP conjugate. As to the method:
FIG. 21 relates to an experiment carried out to determine the competitive binding activity (IC50) of GMI-1359 against E-selectin and CXCR4. GMI-1359 was assessed for inhibition of sialyl Le^X binding to immobilized E-selectin and α-CXCR4 antibody binding to Raji cells.
The inhibition assay to screen GMI-1359 as an antagonist of E-selectin was a competitive binding assay, which allowed the determination of IC50 values. Human E-selectin/Ig chimera was immobilized by incubation at 37° C. for 2 hour in 96-well microtiter plates. To reduce nonspecific binding, BSA was added to each well and incubated at room temperature for 2 hours. After incubation with E-selectin/Ig chimera, the plate was washed and serial dilutions of the test compounds were added to the wells in the presence of conjugates of biotinylated, sLe^a-polyacrylamide with streptavidin/horseradish peroxidase and incubated for 2 hours at room temperature. To determine the amount of sLe^a bound to immobilized E-selectin after washing, the peroxidase substrate, 3,3′,5,5′ tetramethylbenzidin (TMB) was added. After 3 minutes, the enzyme reaction was stopped by the addition of H3PO4, and the absorbance of light at a wavelength of 450 nm was determined. […]

Where [3] appears, read: listed as groups G8-G12 (sampling groups).
Setting [4] is: printed directly after the Group 8 / Group 12 values, group not named.

Take `CCC1CC(C(=O)NCCNCc2ccc(CN3CCCNCCNCCCNCC3)c(Br)c2)CC(OC2OC(CO)C(O)C(O[C@@H](CC3CCCCC3)C(=O)O)C2NC(C)=O)C1OC1OC(C)C(O)C(O)C1O` (stereo partly shown) [GMI-1359]: in assay [1] (Group 2, single agent), the “disease status of the group” value was “all animals were identified with progressive disease”. Further, the “statistical significance of anti-tumor effect” value in assay [1] (Groups 2, 4, 6) was “did not produce a statistically significant (p>0.05) anti-tumor effect”. The “regressions or tumor free survivors” value in assay [1] (Groups 2-6) is “no regressions or tumor free survivors”. In addition, the “median time to evaluation size (750 mm^3) from the start of dosing” value in assay [1] (Groups 2-6: GMI-1359 40 mg/kg IP QDx20 (Days 3-22), antibody 10 mg/kg IP Days 3,6,10,13,17) was determined as 18.4 days. Also, in assay [1] (Groups 2-6: GMI-1359 40 mg/kg IP QDx20, antibody 10 mg/kg IP Days 3,6,10,13,17), the “median post Day 9 tumor volume doubling time” value was 3.3 days. Further, in assay [1] (Groups 2-6, tumor burden >=2 fold that on Day 9), the “incidence of progressive disease” value was determined as 100%. Further, the “tumor growth delay (T-C)” value in assay [1] (Groups 2-6 vs Group 1 saline, evaluation size 750 mm^3, GMI-1359 40 mg/kg IP QDx20, antibody 10 mg/kg IP Days 3,6,10,13,17) was determined as 2.5 days. Further, the “regressions or tumor free survivors” value in assay [1] (Groups 8-12 (sampling groups)) is listed as “no regressions or tumor free survivors”. Also, in assay [1] (Groups 8-12 (sampling groups, euthanized Day 15)), the “incidence of progressive disease” value is listed as 100%. For the same compound, the “median time to evaluation size” value in assay [1] (Groups 8-12: GMI-1359 40 mg/kg IP QDx12 (Days 3-14), antibody 10 mg/kg IP Days 3,6,10,13, euthanized Day 15) was 14.3 days. In addition, the “median post Day 9 tumor volume doubling time” value in assay [1] (Groups 8-12: GMI-1359 40 mg/kg IP QDx12, antibody 10 mg/kg IP Days 3,6,10,13, euthanized Day 15) turned out to be 1.8 days. The “Tumor Growth Delay, statistical comparison vs G1 (Vehicle (Saline))” value in assay [1] (listed as groups G2-G6, time to evaluation size 750 mm^3) is reported as “NS”. In addition, in assay [1] (setting [3]), the “Tumor Growth Delay, statistical comparison vs G1 (Vehicle (Saline))” value is “NS”; the “Tumor Growth Delay, statistical comparison vs G2 (GMI-1359)” value was “NS”; the “Tumor Growth Delay, statistical comparison vs G3 (anti KLH; Rat IgG2b, LTF-2)” value was “NS”; the “Tumor Growth Delay, statistical comparison vs G4 (anti-mPD-L1)” value is listed as “NS”. In addition, in assay [1] (setting [3]), the “Tumor Growth Delay, statistical comparison vs G5 (GMI-1359 + anti KLH; Rat IgG2b, LTF-2)” value is recorded as “NS”; the “Tumor Growth Delay, statistical comparison vs G6 (GMI-1359 + anti-mPD-L1)” value is reported as “NS”; the “Tumor Growth Delay, statistical comparison vs G7 (Vehicle (Saline))” value was “NS”. Moreover, in assay [1] (setting [4]), the “median time to progression” value was determined as 14.5 days and the “progression free survival period” value stood at 5.5 days. Moreover, in assay [2], the “inhibition of ligand binding to E-selectin” value is on record as “inhibits ligand binding”.

Values taken from US11433086B2, “Combination of T-cell checkpoint inhibitors with inhibitors of e-selectin or CXCR4, or with heterobifunctional inhibitors of both E-selectin and CXCR4” (GlycoMimetics, Inc., priority 2016, dated 2022).
